These results are taken from publication PMC4981850 (Scientific Reports, 2016).

Structures are written as SMILES.

Assay [1] has as its target T1, hDAT (human dopamine transporter) (Homo sapiens, UniProt Q01959).
T1 construct: gene SLC6A3
Nature of the assay: two-electrode voltage clamp (-60 mV), Xenopus oocytes expressing hDAT, block of transporter leak current. The class given is cell-based. Background: Two-electrode voltage clamp holds a large cell at a set potential and records current.

Assay [2] addresses T1, hDAT (human dopamine transporter). Nature of the assay: two-electrode voltage clamp (-60 mV), Xenopus oocytes expressing hDAT, inward current. The class given is cell-based.

By EC50 is commonly meant the midpoint of the concentration-response curve. A high value points to lower potency in that assay.

T1 sequence (Q01959 whole entry): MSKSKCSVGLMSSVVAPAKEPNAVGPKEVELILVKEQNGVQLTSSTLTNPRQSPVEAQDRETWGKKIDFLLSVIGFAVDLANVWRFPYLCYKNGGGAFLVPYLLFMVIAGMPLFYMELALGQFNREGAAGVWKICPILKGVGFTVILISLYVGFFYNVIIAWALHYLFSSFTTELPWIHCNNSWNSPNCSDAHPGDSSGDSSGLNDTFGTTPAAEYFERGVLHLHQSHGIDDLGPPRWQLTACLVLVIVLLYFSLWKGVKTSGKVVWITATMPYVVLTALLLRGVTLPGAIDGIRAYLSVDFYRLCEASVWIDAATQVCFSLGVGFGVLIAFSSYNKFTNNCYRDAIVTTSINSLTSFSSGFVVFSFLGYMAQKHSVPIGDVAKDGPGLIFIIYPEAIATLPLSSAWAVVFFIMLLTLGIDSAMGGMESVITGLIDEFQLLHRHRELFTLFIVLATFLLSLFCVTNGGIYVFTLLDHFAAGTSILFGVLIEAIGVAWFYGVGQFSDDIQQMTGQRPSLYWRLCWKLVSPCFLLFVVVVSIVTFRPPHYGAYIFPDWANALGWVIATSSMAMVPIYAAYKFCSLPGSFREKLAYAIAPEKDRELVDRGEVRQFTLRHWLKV

As for `C[C@@H]1[C@@H](c2ccccc2)OCCN1C` [2R,3R(−)-PDM, (2R,3R)-(+)-3,4-Dimethyl-2-phenylmorpholine], in assay [1], the EC50 was about 23.5 µM. The compound `C[C@H]1NCCO[C@@H]1c1ccccc1` [2R,3R(−)-PM, (2R,3R)-(+)-3-Methyl-2-phenylmorpholine] displayed an EC50 in assay [2] of 2.63 ± 0.6 µM.

With `C[C@H]1[C@H](c2ccccc2)OCCN1C` [2S,3S(+)-PDM, (2S,3S)-(+)-3,4-Dimethyl-2-phenylmorpholine], in assay [1], the EC50 was found to be 2.56 ± 0.82 µM. Take `C[C@@H]1NCCO[C@H]1c1ccccc1` [2S,3S(+)-PM, (2S,3S)-(+)-3-Methyl-2-phenylmorpholine]: the EC50 in assay [2] worked out at 0.75 ± 0.14 µM.
